US7666414B2, “Methods for treating prostate cancer using modified antibodies to prostate-specific membrane antigen” (Cornell Research Foundation, Inc., priority 2001, dated 2010)

What was measured:
[1] = system: metastatic androgen-independent prostate cancer; test: Phase 1 dose-escalating trial of DM1 conjugated deJ591; format: in vivo, human
Description: Based upon emerging clinical safety and PK, repeat dosing at four week intervals was subsequently permitted.
DLT is defined as the occurrence of one or more of the following:
• Grade 4 thrombocytopenia (platelet count <10,000/mm3) • Requirement for platelet transfusion and/or other methods to increase platelet count • Febrile neutropenia (ANC <1000/mm^3 concurrent with a temperature >38.5° C.). (Per the Infection/Febrile Neutropenia subsection of the NCI CTC version 2.0, febrile neutropenia is, by definition, a >Grade 3 toxicity) • Grade 4 neutropenia without fever of >7 days duration • Grade 3 neutropenia requiring granulocyte colony-stimulating factor (G-CSF) administration • Grade 4 anemia (hemoglobin <6.5 g/dL) • Grade 3 anemia (hemoglobin 6.5-<8.0 g/dL) in a subject receiving EpogenÒNon-hematologic • Any Grade 3 non-hematologic toxicity considered by the investigator to be possibly related to study drug MTD is defined as the highest dose level with an observed incidence of DLT in no more than 1 out of 6 subjects.
There will be a 4 week (28 days±2 days) interval between dose administrations. […] Subjects will receive the same dose administered on day 1 (Visit 1) of their first infusion.
The starting dose is 18 mg/m2. Subjects will be followed for 3 weeks after the first dose to determine dose escalation. Dose escalation will continue until DLT and MTD are determined. Two phases of dose escalation will be used. In the first phase, one subject will be enrolled at each dose level. In the second phase, three subjects will be enrolled at each dose level. The planned dose increments are 80%, 60%, 40%, 30%, 30%, 30%, 30%, 30% and 30% above the previous dose, with a total of ten dose levels planned. All dose increments will be adjusted to 30% above the previous dose if DLT or two or more occurrences of non dose-limiting grade 2 or greater drug-related toxicity (NDLT) are observed in subjects treated at any of the first three dose levels. Non dose-limiting grade 2 or greater toxicity includes grade 2 or 3 hematologic toxicity and grade 2 non-hematologic toxicity. Drug-related toxicity is toxicity considered by the investigator to be related to study drug. In the first phase, one subject will be enrolled at the lowest dose level and observed for 3 weeks to ensure that there are no significant adverse events. If no DLT or NDLT is observed during the 3 week observation period, dose escalation will continue and a new subject will be enrolled at the next predefined dose level. Single subjects will continue to be enrolled and observed at sequentially increasing dose levels until one subject experiences a DLT or a NDLT. If DLT is observed in a single subject at any dose level in the first phase, the second phase will begin, where 3 subjects per dose level will be enrolled. The dose assignment for the first subject enrolled in the second phase will be one dose level lower than the dose level at which DLT is observed. If NDLT is observed in the subject treated at any of the first three dose levels, dose escalation will stop and two more subjects will be enrolled at the current dose level. Subsequent dose escalation and enrollment will be determined by the number and grade of toxicities observed in these two additional subjects. If DLT or NDLT is not observed, the first phase will continue. Dose escalation will proceed to the next predefined dose level, with one subject enrolled at that dose level. If DLT is observed in one subject, three subjects will be enrolled at the current dose level and the second phase will begin. The dose increments for subsequent dose escalations will be 30% for the remainder of the study. If DLT is observed in both subjects, dose escalation will stop and three subjects will be enrolled at the previous dose level, marking the beginning of the second phase. The previous dose level will be evaluated as potential MTD. No further dose escalation will occur. […]

[2] = system: micronucleated polychromatic erythrocytes; conditions: 30, 48, and 90 mg/m^2
[3] = system: micronucleated polychromatic erythrocytes; test: Mouse micronucleus test; conditions: in vivo
LNCaP = test: Binding to LNCaP by FACS; parameters: species or system human
[4] = system: PSMA-positive CWR22 xenografts; test: Efficacy in PSMA-positive CWR22 xenografts; format: in vivo, C.B-17 scid mice; conditions: for TGD: dosing interval study, five cycles
Description: Experiment: Male SCID mice were implanted by serial passage of CWR22 prostate tumor xenograft. […] All treatments were given intravenously. Tumor growth and animal health were continually monitored throughout the study with tumor growth measured every 3 days.
Experiment: Male C.B-17 SCID mice bearing CWR22 xenografts approximately 200 mm^3 in size received IV injections (200 μL constant volume) of the test articles according to the dose and schedule as shown in Table 22.
Male C.B-17 scid mice bearing CWR22 xenografts approximately 200 mm^3 in size received IV injections (200 μL constant volume) of the test articles according to the dose and schedule shown in the Table 23.
The objective of this study was to determine how much the dosing interval could be increased at this dosage before a loss of efficacy in terms of TGD would be observed. […] The growth delays for the other schedules were: q7d, 53.0 days; q21d, 48.0 days; and q28d, 26.9 days. Similar to other studies using the CWR22 xenograft model, no curative responses were observed, with all tumors eventually resuming growth (FIG. 18).
Experiment: Male SCID mice were implanted by serial passage of CWR22 prostate tumor xenograft. […] All treatments were given intravenously and on a schedule of every three days for 5 doses. Tumor growth and animal health were continually monitored throughout the study with tumor growth measured every 3 days.
Experiment: Male SCID mice were implanted by serial passage of CWR22 prostate tumor xenograft. […] All treatments were given intravenously and on a schedule of every seven days for 5 doses. Tumor growth and animal health were continually monitored throughout the study with tumor growth measured every 3 days.

LNCaP cells = test: In vitro pharmacodynamics, LNCaP proliferation assay; format: cell-based, human; conditions: 6-day exposure in tissue culture
Description: At the end of that period the drug containing media was removed and replaced with drug free media until a total of 144 hours elapsed from the start of the experiment. The resulting effect of drug exposure on proliferation was then determined.

With “deJ591-DM1: deJ591 conjugated via SPP disulfide linker to the maytansinoid DM1, DM1/antibody ratio about 3.5” the tolerability ([1]; 18 to 343 mg/m^2) was “well-tolerated in the majority of patients”, the MTD ([1]; 23 patients, 18 to 343 mg/m^2) was no less than 343 mg/m^2 and the DLT ([1]; highest dose level 343 mg/m^2) was “Only one DLT, an uncomplicated febrile neutropenia”. The “PK of antibody related analytes (J591-DM1, Total J591 and free J591)” value ([1]; in vivo) was “typical of monoclonal antibodies”, the “Plasma levels of DM1-SH” value ([1]; in vivo) was “detectable” and the anti-antibodies ([1]; in vivo) was “No anti-antibodies against DM1 conjugated deJ591, deJ591 or DM1 were detected”. The disease response ([1]; one patient, 264 mg/m^2) was “PR by RECIST criteria”, the “durable decrease in PSA” value ([1]; one patient, 264 mg/m^2) was 70% and the “sustained PSA decline” value ([1]; one patient, 343 mg/m^2) was greater than 50%. For the same substance, the “increases in micronucleated polychromatic erythrocytes” value [2] was “positive”, the “Lowest genotoxic dosage in ICR mice, DM1-Equivalents received” value [3] was 0.54 mg/m^2 and the EC50 (LNCaP; listed as 1552-60S) was 7.9 nM. For the same substance, the EC50 (LNCaP; listed as N067020302) was 6.9 nM, the “return to normal growth kinetics following the last dose” value ([4]; 7.25 mg/kg every seven days for 5 doses) was “approximately 10 days” and the “Tumor Growth Delay” value ([4]; 7.28 mg/kg (120 μg/kg DM1-equivalents), q3dX5, IV) was 27.1 days. For the same substance, the “Tumor Growth Delay” value ([4]; 7.28 mg/kg (120 μg/kg DM1-equivalents), qdX5, IV) was 19.6 days, the tumor growth ([4]; 14.5 mg/kg every seven days for 5 doses) was “suppression of tumor growth with some reduction from the initial tumor volume” and the tumor growth ([4]; 14.5 mg/kg, 7 and 14 day dosing interval) was “apparent block in tumor growth with a resumption of normal growth kinetics approximately 30 days after the last dose”. The tumor growth ([4]; 14.5 mg/kg, 21 or 28 day dosing interval) was “slowed growth”, the “Tumor Growth Delay” value ([4]; 14.56 mg/kg (240 μg/kg DM1-equivalents), q3dX5, IV) was 36.7 days and the “Tumor Growth Delay” value ([4]; 14.56 mg/kg (240 μg/kg DM1-equivalents), qdX5, IV) was 26.9 days. For the same substance, the “Tumor Growth Delay” value ([4]; Comparison II, 4.8 mg/kg (90 μg/kg DM1-equivalents), q3dX5) was 31.9 days, the “Tumor Growth Delay” value ([4]; Comparison II, 6.5 mg/kg (120 μg/kg DM1-equivalents), q3dX5) was 37.8 days and the “Tumor Growth Delay” value ([4]; Comparison II, 6.5 mg/kg (120 μg/kg DM1-equivalents), q7dX5) was 33.9 days. The “Tumor Growth Delay” value ([4]; Comparison II, 9.7 mg/kg (180 μg/kg DM1-equivalents), q3dX5) was 42.7 days, the “Tumor Growth Delay” value ([4]; Comparison II, 12.93 mg/kg (240 μg/kg DM1-equivalents), q3dX5) was 46.4 days and the “Tumor Growth Delay” value ([4]; Comparison II, 12.93 mg/kg (240 μg/kg DM1-equivalents), q7dX5) was 66.8 days. For the same substance, the associated toxicity ([4]; all dosages, Comparison I) was “less for all dosages of deJ591-DM1 relative to maytansine alone”, the curative effect ([4]; doses and schedules of Comparison I) was “non-curative” and the TGD ([4]; 12.93 mg/kg, q7d) was 53.0 days. For the same substance, the TGD ([4]; 12.93 mg/kg, q14d) was 75.7 days, the TGD ([4]; 12.93 mg/kg, q21d) was 48.0 days and the TGD ([4]; 12.93 mg/kg, q28d) was 26.9 days. The “Efficacious dosage in SCID mouse xenografts, DM1-Equivalents received” value ([4]; mouse, in vivo) was roughly 0.72 mg/m^2, the “In vivo activity - mouse xenograft model” value ([4]; reference standard batch) was “Delays tumor growth” and the “effect on large tumors, 500 to 2000 mm^3” value ([4]; second course, 12.93 mg/kg) was “potent regressions”. The “IC50 on PSMA-positive LNCaP cells” value (LNCaP cells) was 0.21 µg/mL.
